# Measurements published in patent US5843988A, “Cyclopropachromencarboxylic acid derivatives” (Suntory Limited, priority 1995, dated 1998).
# pIC50: −log10 of the molar value. Like-named read-outs stand apart in the source and are kept apart here.
# Molecular target: T1, rat mGluR1 (metabotropic glutamate receptor 1) (Rattus norvegicus, UniProt P23385)
# T1 construct: expressed in transfected cells; host or cells: CHO (Chinese hamster ovary) cells
# Assay: mGluR1 antagonistic effect as assessed with reference to intracellular Ca2+ response in mGluR1 expressing CHO cells (Fura-2 fluorometry)
# Type: cell-based
# Conditions: Intracellular Ca2+ release induced by 10 μM glutamic acid
# Excerpt: Evaluation Example 1. mGluR1 antagonistic effect as assessed with reference to intracellular Ca^2+ response in mGluR1 expressing CHO cells
# Since mGluR1 (metabotropic glutamate receptor 1) induces release of Ca^2+ from intracellular Ca^2+ storage sites via the formation of inositol-1,4,5-triphosphate in the pathway of the intracellular signaling system, it is possible to evaluate the antagonistic activity of the compounds of the invention against mGluR1 with reference to intracellular Ca^2+ response in CHO cells in which recombinant rat mGluR1 gene is transfected.
# The present inventors applied this evaluation system to assess the mGluR1 antagonistic activity of the compounds provided by this invention using CHO cells in which rat mGluR1 gene is expressed [S. Nakanishi et al.: Neuron, 8, 757 (1992)]. Intracellular Ca^2+ release induced by 10 μM glutamic acid in the presence of various concentrations of the compounds of the present invention added to culture medium was measured by fluorometry with Fura -2 [H. Sugino et al.: Brain Res., 322,127 (1984)]. The antagonistic effect against the induced intracellular Ca^2+ elevation was thus assessed by comparison with the control response in the absence of the test compounds.
# [1] = read-out: 50% inhibitory concentrations (IC50), bound stated
# T1 sequence (P23385 19-1199): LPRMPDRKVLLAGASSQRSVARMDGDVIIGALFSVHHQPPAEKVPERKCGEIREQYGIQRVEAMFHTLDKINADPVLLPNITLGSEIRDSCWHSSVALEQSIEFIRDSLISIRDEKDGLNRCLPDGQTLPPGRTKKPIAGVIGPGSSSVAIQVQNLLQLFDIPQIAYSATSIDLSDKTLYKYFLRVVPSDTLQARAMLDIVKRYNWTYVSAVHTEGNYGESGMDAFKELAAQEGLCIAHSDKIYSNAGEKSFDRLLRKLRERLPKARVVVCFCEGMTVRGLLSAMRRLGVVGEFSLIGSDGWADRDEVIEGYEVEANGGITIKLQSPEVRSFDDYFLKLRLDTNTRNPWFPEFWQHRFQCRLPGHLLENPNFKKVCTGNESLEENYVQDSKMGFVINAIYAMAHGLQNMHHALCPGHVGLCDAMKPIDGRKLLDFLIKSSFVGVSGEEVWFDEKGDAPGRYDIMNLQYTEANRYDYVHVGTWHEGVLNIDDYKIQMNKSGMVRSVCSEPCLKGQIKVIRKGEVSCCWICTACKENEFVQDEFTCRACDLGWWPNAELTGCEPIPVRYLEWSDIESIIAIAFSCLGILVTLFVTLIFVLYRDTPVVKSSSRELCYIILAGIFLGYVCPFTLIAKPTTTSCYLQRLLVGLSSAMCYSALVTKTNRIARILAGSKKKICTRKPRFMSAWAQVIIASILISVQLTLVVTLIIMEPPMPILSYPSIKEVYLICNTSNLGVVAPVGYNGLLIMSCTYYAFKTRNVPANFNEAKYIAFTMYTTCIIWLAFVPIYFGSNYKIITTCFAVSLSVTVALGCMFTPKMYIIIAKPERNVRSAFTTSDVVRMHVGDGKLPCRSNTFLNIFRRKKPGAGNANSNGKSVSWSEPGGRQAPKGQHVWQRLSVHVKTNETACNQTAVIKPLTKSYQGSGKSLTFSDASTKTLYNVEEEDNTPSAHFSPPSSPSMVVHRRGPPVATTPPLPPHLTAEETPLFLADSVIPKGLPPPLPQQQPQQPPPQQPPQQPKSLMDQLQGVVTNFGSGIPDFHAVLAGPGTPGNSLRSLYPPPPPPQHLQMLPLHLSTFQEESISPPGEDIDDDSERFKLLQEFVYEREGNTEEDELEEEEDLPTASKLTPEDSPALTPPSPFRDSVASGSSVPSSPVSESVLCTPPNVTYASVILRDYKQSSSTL
Compound,"pIC50 (Table 3, read-out: IC50)",pIC50 [1]
"N[C@H](C(=O)O)c1ccc(C(=O)O)cc1 [(S)-4CPG, reference compound]",3.70,
"CCOC(=O)C12CC1C(=NO)c1ccccc1O2 (stereo not drawn) [Example 32, 1a-ethoxycarbonyl-1a, 7a-dihydro-7(1H)-hydro-xyiminocyclopropa [b]chromen]",4.64,≥ 4.00
CC(C)COC(=O)C12CC1C(=NO)c1ccccc1O2 (stereo not drawn) [Example 34],4.70,≥ 4.00
"O=C(Nc1ccccc1)C12CC1C(=NO)c1ccccc1O2 (stereo not drawn) [Example 35, 1a-(N-phenyl)carbamoyl-1a, 7a-dihydro-7(1H)-hydroxyiminocyclopropa[b]chromen]",5.52,≥ 4.00
"CN(C(=O)C12CC1C(=NO)c1ccccc1O2)c1ccccc1 (stereo not drawn) [Example 36, 1a-(N-methyl-N-phenyl)carbamoyl-1a, 7a-dihydro-7(1H)-hydroxyiminocyclopropa[b]chromen]",5.00,≥ 4.00
"COc1ccc(N(C)C(=O)C23CC2C(=NO)c2ccccc2O3)cc1 (stereo not drawn) [Example 41, 1a-(N-4-methoxyphenyl-N-methyl)carbamoyl-1a, 7a-dihydro-7(1H)-hydroxyimino-cyclopropa[b]chromen]",4.00,≥ 4.00
"CN(C(=O)C12CC1C(=NO)c1ccccc1O2)c1ccc(Cl)cc1 (stereo not drawn) [Example 42, 1a-(N-4-chlorophenyl-N-methyl)-carbamoyl-1a, 7a-dihydro-7(1H)-hydroxyiminocyclopropa-[b]chromen]",4.00,≥ 4.00
"CN(Cc1ccccc1)C(=O)C12CC1C(=NO)c1ccccc1O2 (stereo not drawn) [Example 43, 1a-(N-benzyl-N-methyl)carbamoyl-1a, 7a-dihydro-7(1H)-hydroxyiminocyclopropa[b]chromen]",4.70,≥ 4.00
"O=C(N1CCN(c2ccc(F)cc2)CC1)C12CC1C(=NO)c1ccccc1O2 (stereo not drawn) [Example 53, 1a-(1-(4-fluorophenyl)-piperazinyl)arbonyl-1a, 7a-dihydro-7(1H)-hydroxyiminocyclopropa[b]chromen]",4.00,≥ 4.00
"CC(N)(C(=O)O)c1ccc(C(=O)O)cc1 (stereo not drawn) [MCPG, reference compound]",3.15,
